Test results from patent publication US20110263520A1, “COMPOSITION FOR USE IN CONTROLLING HARMFUL ORGANISMS THAT CONTAINS 16-KETO ASPERGILLIMIDE” (priority 2008, published 2011).
Where two headings read alike, the source gives them in different places.

Key:
Nephotettix cincticeps [1] = experiment: Foliage application test, Nephotettix cincticeps (Reference Test Example 8); format: in vivo
Protocol: (§1) A test solution adjusted to a predetermined concentration (10% aqueous acetone solution) was applied to rice seedlings in pot culture. […] The test was duplicated.
The death rate against larvae at the second instar born of Nephotettix cincticeps was calculated in the same manner as in Reference Test Example 7.

[2] = test system: Trigonotylus caelestialium; experiment: Root dipping application test, Trigonotylus caelestialium (Reference Test Example 2); format: in vivo
Excerpt: (§2) A test solution adjusted to a predetermined concentration (10% aqueous acetone solution) was applied to the root of wheat seedlings in water culture. […] The test was duplicated.

Nephotettix cincticeps [3] = experiment: Soil drenching application test, Nephotettix cincticeps (Reference Test Example 5); format: in vivo
Protocol: (§3) A test solution adjusted to a predetermined concentration (10% aqueous acetone solution) was applied to rice seedlings in a pot by soil drenching. The rice seedlings were allowed to stand for 3 days. […] The test was duplicated.
The death rate against second instar larvae was calculated in the same manner as in Reference Test Example 3.

Aphis gossypii = experiment: Foliage application test for Aphis gossypii, cucumber leaf disk (Test Example 3); format: in vivo; conditions: 16-keto aspergillimide 1.25 ppm alone
Excerpt: Test solutions adjusted to a predetermined concentration (50% aqueous acetone solution; 0.05% Tween 20 added) were applied to a leaf disk having a diameter of 2.0 cm cut out from a cucumber grown in a pot.
(§4) Colby's formula: Theoretical value (%)=100−(A×B)/100

Laodelphax striatellus [4] = experiment: Root dipping application test, Laodelphax striatellus (Reference Test Example 1); format: in vivo
Excerpt: as §2
As is apparent from Table 15, the systemic insecticidal activity of 16-keto aspergillimide was much higher than that of a control compound, Asperparaline A.
The 16-keto aspergillimide and Asperparaline A used in this test were obtained according to methods described in The Journal of Antibiotics, 1997, 50(10), 840-846. This is true of the following test examples.

[5] = test system: Haemaphysalis longicornis; experiment: Tickicidal effect against Haemaphysalis longicornis on body surface of mouse (Test Example 6); format: in vivo; conditions: for Death rate (%): mouse body surface, 3 days after release
Protocol: Skin hair on the back of mouse (ICR, male, 5 week olds) was clipped in a diameter of about 2 cm, and a 15-mL polystyrene conical tube cut to have a height of about 1.5 cm was bonded to the body surface of the mouse with an instant adhesive. Test solutions (20 μl) adjusted with ethanol were dropped on the body surface of mice within the bonded tube. After thorough drying, larvae (10 or more heads) were released within the tube, and the tube was lidded. […] The test was hexaplicated.
as §4

[6] = test system: Haemaphysalis longicornis; experiment: Tickcidal effect against Haemaphysalis longicornis, dry film in glass vial (Test Example 5); format: in vivo; conditions: Haemaphysalis longicornis, 48 h, 2 days after release; for pest or weed control at 1 ppm: 16-keto aspergillimide 1 ppm alone; for pest or weed control at 2 ppm: 16-keto aspergillimide 2 ppm alone
Protocol: Acetone solutions (30 μl) adjusted to predetermined concentrations were placed in 4 mL-volume glass vials. The vials were placed on a shaker, and a dry film of the compound was prepared on the inner wall of the vials. The vials were dried for 24 hr or more. Larvae (10 or more heads) were released in the vials, and the vials were lidded. The vials were then left to stand in a humidistat chamber (25° C., humidity 85%, fully darkened conditions). […] The test was duplicated.
as §4

[7] = test system: Nilaparvata lugens which is sensitive to imidacloprid; experiment: Foliage application test for Nilaparvata lugens, imidacloprid-sensitive strain (Test Example 4, comparison); format: in vivo; conditions: 6 days after release
Protocol: (§5) Test solutions adjusted to a predetermined concentration (50% aqueous acetone solution) applied to rice seedlings in a pot for foliage application. […] The test was duplicated.
(§6) For comparison, a test was carried out in the same manner as described above, except that a Nilaparvata lugens strain which is highly sensitive to imidacloprid was used.
(§7) Regarding the origin of the test insect pests, Nilaparvata lugens which is low-sensitive to imidacloprid was an insect which had been collected outdoors in Kumamoto Prefecture, 2007, and Nilaparvata lugens which is sensitive to imidacloprid was an insect which had been collected in Kagoshima Prefecture and was then subjected to indoor successive raising.

Laodelphax striatellus [8] = experiment: Laodelphax striatellus soil drenching application test (Test Example 1); conditions: 16-keto aspergillimide 0.2 mg/seedling alone
Protocol: Test solutions adjusted to a predetermined concentration (10% aqueous acetone solution) were applied to rice seedling in a pot by soil drenching. The rice seedling was allowed to stand for 3 days. Second instar larvae were released and was then allowed to stand in a humidistat chamber (light period 16 hr−dark period 8 hr) (25° C.).
Death rate (%)={number of dead larvae/(number of survived larvae+number of dead larvae)}×100
wherein A: 100−(death rate when application was performed only with 16-keto aspergillimide); and

Nilaparvata lugens = experiment: Soil drenching application test, Nilaparvata lugens (Reference Test Example 3); format: in vivo
Excerpt: as §3

Sogatella furcifera [9] = experiment: Foliage application test, Sogatella furcifera (Reference Test Example 7); format: in vivo
Excerpt: as §1

Sogatella furcifera [10] = experiment: Soil drenching application test, Sogatella furcifera (Reference Test Example 4); format: in vivo
Protocol: as §3
The death rate against larvae at the second instar born of Sogatella furcifera was calculated in the same manner as in Reference Test Example 3.

[11] = test system: Nilaparvata lugens which is low-sensitive to imidacloprid; experiment: Foliage application test for Nilaparvata lugens, imidacloprid low-sensitive strain (Test Example 4); format: in vivo; conditions: for Death rate (%): low-sensitive strain, 6 days after release
Protocol: as §5, §6, §7

[12] = test system: larvae at the third instar born of Haemonchus contortus; conditions: The Journal of Antibiotics, 1997, 50(10), 840-846; cited from earlier work
Laodelphax striatellus [13] = experiment: Foliage application test for Laodelphax striatellus (Test Example 2); format: in vivo; conditions: 16-keto aspergillimide 2.5 ppm alone
Excerpt: as §4

[14] = test system: Frankliniella occidentalis; experiment: Soil drenching application test, Frankliniella occidentalis (Reference Test Example 6); format: in vivo
Excerpt: A test solution adjusted to a predetermined concentration (10% aqueous acetone solution) was applied to cucumber seedlings in pot couture by soil drenching. The cucumber seedlings were allowed to stand for 4 days. A leaf disk having a diameter of 2.8 cm was then cut out from cucumber seedlings, and first instar larvae were released. […] The test was duplicated.

[15] = test system: Frankliniella occidentalis; experiment: Foliage application test, Frankliniella occidentalis, haricot leaf disk (Reference Test Example 9); format: in vivo
Excerpt: A leaf disk having a diameter of 2.8 cm was cut out from haricot in pot culture, and a test solution adjusted to a predetermined concentration (50% aqueous acetone solution, with 0.05% Tween 20 added) was applied thereto. The leaf disk was air-air dried, and first instar larvae were released.

[16] = 100 ppm, rice seedlings, 3 days after release
[17] = 0.5 μg/seedling, wheat seedlings, 3 days after release
[18] = 1.0 mg/seedling, rice seedlings, 3 days after release
[19] = 16-keto aspergillimide 1 μg/2 cm^2 alone
[20] = read-out: Death rate (%), Table 9
[21] = read-out: Death rate (%), Table 10

For C[C@H]1CC(=O)N2C[C@]34C[C@]5(CC(=O)N(C)C5=O)C(C)(C)[C@@H]3C[C@]12C(=O)N4C [16-Keto aspergillimide, 16-keto aspergillimide], the “insecticidal activity in foliage application” value (Nephotettix cincticeps [1]) was “exhibited insecticidal activity”, the “Death rate (%)” value (Nephotettix cincticeps [1]; [16]) was 100% and the systemic insecticidal activity [2] was “exhibited systemic insecticidal activity”. The “Death rate (%)” value [2, 17] was 100%, the systemic insecticidal activity (Nephotettix cincticeps [3]) was “exhibited systemic insecticidal activity” and the “Death rate (%)” value (Nephotettix cincticeps [3]; [18]) was 100%. The “Theoretical value calculated by the Colby's formula (%)” value (Aphis gossypii) was 26%, the “Death rate (%)” value (Aphis gossypii; leaf disk, 3 days after release) was 26% and the “Death rate (%) for each amount of test chemical compound” value (Laodelphax striatellus [4]; [17]) was 100%. For the same compound, the “systemic insecticidal activity compared with control compound Asperparaline A” value (Laodelphax striatellus [4]; Table 15) was “much higher”, the “Theoretical value (%) by Colby's formula” value [5, 19] was 22% and the “Death rate (%)” value [5, 19] was 22%. The “Death rate (%)” value ([5]; 16-keto aspergillimide 2 μg/2 cm^2 alone) was 57%, the “Theoretical value (%) by Colby's formula” value ([5]; 16-keto aspergillimide alone) was 57% and the pest or weed control at 1 ppm [6, 20] was 10%. The pest or weed control at 2 ppm [6, 20] was 17%, the pest or weed control at 1 ppm [6, 21] was 14% and the pest or weed control at 2 ppm [6, 21] was 20%. The “Death rate (%)” value ([7]; treatment concentration 5 ppm) was 95%, the “Death rate (%)” value ([7]; treatment concentration 20 ppm) was 100% and the “Death rate (%)” value ([7]; treatment concentration 50 ppm) was 100%. The “Theoretical value (%) calculated by the Colby's formula” value (Laodelphax striatellus [8]) was 30%, the “Death rate (%)” value (Laodelphax striatellus [8]; soil drenching, 3 days after release) was 30% and the systemic insecticidal activity (Nilaparvata lugens) was “exhibited systemic insecticidal activity”. The “Death rate (%)” value (Nilaparvata lugens; [18]) was 100%, the “insecticidal activity by foliage application” value (Sogatella furcifera [9]) was “exhibited insecticidal activity” and the “Death rate (%)” value (Sogatella furcifera [9]; [16]) was 100%. For the same compound, the systemic insecticidal activity (Sogatella furcifera [10]) was “exhibited systemic insecticidal activity”, the “Death rate (%)” value (Sogatella furcifera [10]; [18]) was 100% and the “death rate for the low-sensitive strain compared with the high-sensitive strain” value ([11]; Table 7 against Table 8) was “the same”. For the same compound, the “Death rate (%)” value ([11]; treatment concentration 5 ppm) was 60%, the “Death rate (%)” value ([11]; treatment concentration 20 ppm) was 95% and the “Death rate (%)” value ([11]; treatment concentration 50 ppm) was 100%. For the same compound, the anthelmintic activity [12] was “anthelmintically active”, the “Theoretical value (%) calculated by the Colby's formula” value (Laodelphax striatellus [13]) was 65% and the “Death rate (%)” value (Laodelphax striatellus [13]; foliage application, 3 days after release) was 65%. The systemic insecticidal activity [14] was “exhibited systemic insecticidal activity”, the “Death rate (%)” value ([14]; 2.0 mg/seedling, cucumber seedlings, 6 days after release) was 100% and the “Death rate (%)” value ([15]; 100 ppm, haricot leaf disk, 3 days after release) was 100%. The “insecticidal activity by foliage application” value ([15]; foliage application) was “exhibited insecticidal activity”.
